# Source: US11135320B2, “Radioligands for pretargeted pet imaging and methods of their therapeutic use” (priority 2015, dated 2021)
# Where “and” joins values, the source holds several entries; their conditions need not be identical. Equal values may be shown once.
# Test system: subcutaneous SW1222 xenografts (A33 antigen-expressing human colorectal carcinoma)
# Assay: Pretargeted biodistribution with huA33-TCO and ^64Cu-tetrazine radioligand
# Assay type: in vivo, athymic nude mice
# Method: Female athymic nude mice bearing subcutaneous SW1222 (right shoulder) xenografts (100-150 mm^3, 18-21 days post-inoculation) were administered 100 μg (0.66 nmol) huA33-TCO (in 200 μL 0.9% sterile saline) via intravenous tail vein injection. […] The specific activity of the radiotracer was adjusted using cold ^natCu-Tz-SarAr such that the molar ratio of Tzinjected:huA^33injected=1:1. Animals (n=4 per group) were euthanized by CO2(g) asphyxiation at 1, 4, 12, and 24 h after injection. After asphyxiation, 13 tissues were removed, rinsed in water, dried in air for 5 min, weighed, and counted in a gamma counter calibrated for ^64Cu. Counts were converted into activity using a calibration curve generated from known standards. Count data were background- and decay-corrected to the time of injection, and the percent injected dose per gram (% ID/g) for each tissue sample was calculated by normalization to the total activity injected. Contents within the stomach, small intestine, and large intestine were not removed for the measurements.
# Contents within the stomach, small intestine, and large intestine were not removed for the measurements. […] Zeglis, B. M. et al. “A pretargeted PET imaging strategy based on bioorthogonal Diels-Alder click chemistry.” Journal of Nuclear Medicine. 54, 1389-1396 (2013). ©2013 by the Society of Nuclear Medicine and Molecular Imaging, Inc.
# Zeglis, B. M. et al. “A pretargeted PET imaging strategy based on bioorthogonal Diels-Alder click chemistry.” Journal of Nuclear Medicine. 54, 1389-1396 (2013). ©2013 by the Society of Nuclear Medicine and Molecular Imaging, Inc.
# (§1) Female athymic nude mice bearing subcutaneous SW1222 (right shoulder) xenografts (100-150 mm^3, 18-21 days post-inoculation) were administered 100 μg (0.66 nmol) huA33-TCO (in 200 μL 0.9% sterile saline) via intravenous tail vein injection. After an accumulation interval of 48 h, the same mice were then administered ^64Cu-Tz-SarAr (300-350 μCi in 200 μL 0.9% sterile saline) via intravenous tail vein injection (t=0). The specific activity of the radiotracer was adjusted using cold ^natCu-Tz-SarAr such that the molar ratio of Tzinjected:huA^33injected=1:1. Animals (n=4 per group) were euthanized by CO2(g) asphyxiation at 1, 4, 12, and 24 h after injection. After asphyxiation, tissues were removed, rinsed in water, dried in air for 5 min, weighed, and counted in a gamma counter calibrated for ^64Cu. Counts were converted into activity using a calibration curve generated from known standards. Count data were background- and decay-corrected to the time of injection, and the percent injected dose per gram (% ID/g) for each tissue sample was calculated by normalization to the total activity injected. Contents within the stomach, small intestine, and large intestine were not removed for the measurements.
# as §1, with “120” for “48”, “Contents within the stomach, small intestine, and large intestine were not removed for the measurements.” left out
# [1] = 24 h accumulation interval, 1 h p.i.
# [2] = 24 h accumulation interval, 4 h p.i.
# [3] = 24 h accumulation interval, 12 h p.i.
# [4] = 24 h accumulation interval, 24 h p.i.
# [5] = 48 h accumulation interval, 1 h p.i.
# [6] = 48 h accumulation interval, 4 h p.i.
compound,measurement,setting,value
NC12CNCCNCC(NCc3ccc(CNC(=O)CCCC(=O)NCc4ccc(-c5nncnn5)cc4)cc3)(CNCCNC1)CNCCNC2.[64Cu+2] [^64Cu-Tz-SarAr],Blood activity concentration,[1],4.2±0.8 % ID/g and 4.20 ± 0.80^a % ID/g
same,Bone activity concentration,[1],0.67 ± 0.14 % ID/g
same,Heart activity concentration,[1],1.81 ± 0.46 % ID/g
same,Kidney activity concentration,[1],3.1±0.3 % ID/g and 3.08 ± 0.28 % ID/g
same,Large Intestine activity concentration,[1],0.21±0.09 % ID/g
same,Liver activity concentration,[1],1.60 ± 0.12 % ID/g
same,Lung activity concentration,[1],1.65 ± 0.51 % ID/g
same,Muscle activity concentration,[1],0.38 ± 0.06 % ID/g
same,Small Intestine activity concentration,[1],0.88 ± 0.09 % ID/g
same,Spleen activity concentration,[1],0.98 ± 0.25 % ID/g
same,Stomach activity concentration,[1],0.73 ± 0.19 % ID/g
same,Tumor activity concentration,[1],5.63±0.67 % ID/g
same,Tumor/Blood activity concentration ratio,[1],1.34 ± 0.3
same,Tumor/Bone activity concentration ratio,[1],8.43 ± 2.07
same,Tumor/Heart activity concentration ratio,[1],3.11 ± 0.87
same,Tumor/Kidney activity concentration ratio,[1],1.83 ± 0.27
same,Tumor/Large Intestine activity concentration ratio,[1],26.88 ± 12.11
same,Tumor/Liver activity concentration ratio,[1],3.52 ± 0.49
same,Tumor/Lung activity concentration ratio,[1],3.40 ± 1.12
same,Tumor/Muscle activity concentration ratio,[1],14.9±2.9 and 14.92 ± 2.85
same,Tumor/Small Intestine activity concentration ratio,[1],6.42 ± 1.01
same,Tumor/Spleen activity concentration ratio,[1],5.75 ± 1.61
same,Tumor/Stomach activity concentration ratio,[1],7.75 ± 2.24
same,Blood activity concentration,[2],4.0±0.37 % ID/g
same,Bone activity concentration,[2],0.34 ± 0.18 % ID/g
same,Heart activity concentration,[2],1.45 ± 0.03 % ID/g
same,Kidney activity concentration,[2],2.77 ± 0.57 % ID/g
same,Large Intestine activity concentration,[2],0.48 ± 0.09 % ID/g
same,Liver activity concentration,[2],1.45 ± 0.21 % ID/g
same,Lung activity concentration,[2],1.55 ± 0.45 % ID/g
same,Muscle activity concentration,[2],0.37 ± 0.07 % ID/g
same,Small Intestine activity concentration,[2],0.62 ± 0.06 % ID/g
same,Spleen activity concentration,[2],0.81 ± 0.20 % ID/g
same,Stomach activity concentration,[2],0.56 ± 0.20 % ID/g
same,Tumor activity concentration,[2],5.56±0.91 % ID/g and 5.6±0.9 % ID/g
same,Tumor/Blood activity concentration ratio,[2],1.39 ± 0.26
same,Tumor/Bone activity concentration ratio,[2],16.15 ± 8.89
same,Tumor/Heart activity concentration ratio,[2],3.84 ± 0.63
same,Tumor/Kidney activity concentration ratio,[2],2.00 ± 0.53
same,Tumor/Large Intestine activity concentration ratio,[2],11.65 ± 2.99
same,Tumor/Liver activity concentration ratio,[2],3.83 ± 0.83
same,Tumor/Lung activity concentration ratio,[2],3.59 ± 1.20
same,Tumor/Muscle activity concentration ratio,[2],14.84 ± 3.69
same,Tumor/Small Intestine activity concentration ratio,[2],8.96 ± 1.71
same,Tumor/Spleen activity concentration ratio,[2],6.88 ± 2.01
same,Tumor/Stomach activity concentration ratio,[2],9.91 ± 3.85
same,Blood activity concentration,[3],2.19 ± 0.39 % ID/g
same,Bone activity concentration,[3],0.23 ± 0.05 % ID/g
same,Heart activity concentration,[3],0.84 ± 0.1 % ID/g
same,Kidney activity concentration,[3],1.87 ± 0.42 % ID/g
same,Large Intestine activity concentration,[3],0.20 ± 0.04 % ID/g
same,Liver activity concentration,[3],1.33 ± 0.53 % ID/g
same,Lung activity concentration,[3],1.24 ± 0.22 % ID/g
same,Muscle activity concentration,[3],0.15 ± 0.01 % ID/g
same,Small Intestine activity concentration,[3],0.35 ± 0.08 % ID/g
same,Spleen activity concentration,[3],0.65 ± 0.17 % ID/g
same,Stomach activity concentration,[3],0.21 ± 0.1 % ID/g
same,Tumor activity concentration,[3],6.74±1.26 % ID/g
same,Tumor/Bone activity concentration ratio,[3],29.8 ± 8.38
same,Tumor/Heart activity concentration ratio,[3],8.01 ± 1.77
same,Tumor/Kidney activity concentration ratio,[3],3.61 ± 1.05
same,Tumor/Large Intestine activity concentration ratio,[3],33.67±8.82
same,Tumor/Liver activity concentration ratio,[3],5.06 ± 2.23
same,Tumor/Lung activity concentration ratio,[3],5.43 ± 1.41
same,Tumor/Small Intestine activity concentration ratio,[3],19.37 ± 5.95
same,Tumor/Spleen activity concentration ratio,[3],10.34 ± 3.27
same,Tumor/Stomach activity concentration ratio,[3],31.76 ± 16.62
same,Blood activity concentration,[4],2.61 ± 0.20 % ID/g
same,Bone activity concentration,[4],0.29 ± 0.05 % ID/g
same,Heart activity concentration,[4],0.81 ± 0.04 % ID/g
same,Kidney activity concentration,[4],1.9±0.4 % ID/g and 2.00 ± 0.24 % ID/g
same,Large Intestine activity concentration,[4],0.26 ± 0.06 % ID/g
same,Liver activity concentration,[4],1.51 ± 0.2 % ID/g
same,Lung activity concentration,[4],0.99 ± 0.24 % ID/g
same,Muscle activity concentration,[4],0.20 ± 0.07 % ID/g
same,Small Intestine activity concentration,[4],0.45 ± 0.07 % ID/g
same,Spleen activity concentration,[4],0.64 ± 0.04 % ID/g
same,Stomach activity concentration,[4],0.28 ± 0.07 % ID/g
same,Tumor activity concentration,[4],7.38 ± 2.02 % ID/g
same,Tumor/Blood activity concentration ratio,[4],2.83±0.81
same,Tumor/Bone activity concentration ratio,[4],25.46 ± 8.22
same,Tumor/Heart activity concentration ratio,[4],9.10 ± 2.54
same,Tumor/Kidney activity concentration ratio,[4],3.68 ± 1.1
same,Tumor/Large Intestine activity concentration ratio,[4],28.86 ± 10.28
same,Tumor/Liver activity concentration ratio,[4],4.87 ± 1.48
same,Tumor/Lung activity concentration ratio,[4],7.44 ± 2.74
same,Tumor/Muscle activity concentration ratio,[4],37.37±16.1 and 37.37 ± 16.06
same,Tumor/Small Intestine activity concentration ratio,[4],16.33 ± 5.12
same,Tumor/Spleen activity concentration ratio,[4],11.45 ± 3.20
same,Tumor/Stomach activity concentration ratio,[4],26.44 ± 9.89
same,activity concentration in all other non-target tissues,"24 h accumulation interval, later time points, other than blood and kidneys",less than 1.5 % ID/g
same,Blood activity concentration,[5],2.15 ± 0.5 % ID/g
same,Bone activity concentration,[5],0.23 ± 0.05 % ID/g
same,Heart activity concentration,[5],1.05 ± 0.24 % ID/g
same,Kidney activity concentration,[5],1.98 ± 0.26 % ID/g
same,Large Intestine activity concentration,[5],0.29 ± 0.09 % ID/g
same,Liver activity concentration,[5],1.79 ± 0.09 % ID/g
same,Lung activity concentration,[5],1.68 ± 0.09 % ID/g
same,Muscle activity concentration,[5],0.22 ± 0.11 % ID/g
same,Small Intestine activity concentration,[5],0.54 ± 0.15 % ID/g
same,Spleen activity concentration,[5],0.84 ± 0.27 % ID/g
same,Stomach activity concentration,[5],0.39 ± 0.17 % ID/g
same,Tumor activity concentration,[5],4.49 ± 0.44 % ID/g
same,Tumor/Blood activity concentration ratio,[5],2.09 ± 0.52
same,Tumor/Bone activity concentration ratio,[5],19.48 ± 4.94
same,Tumor/Heart activity concentration ratio,[5],4.27 ± 1.05
same,Tumor/Kidney activity concentration ratio,[5],2.27 ± 0.37
same,Tumor/Large Intestine activity concentration ratio,[5],15.48 ± 5.25
same,Tumor/Liver activity concentration ratio,[5],2.51 ± 0.27
same,Tumor/Lung activity concentration ratio,[5],2.67 ± 0.3
same,Tumor/Muscle activity concentration ratio,[5],20.34 ± 10.25
same,Tumor/Small Intestine activity concentration ratio,[5],8.35 ± 2.48
same,Tumor/Spleen activity concentration ratio,[5],5.34 ± 1.79
same,Tumor/Stomach activity concentration ratio,[5],11.57 ± 5.25
same,Blood activity concentration,[6],1.78±0.28 % ID/g
same,Bone activity concentration,[6],0.32 ± 0.12 % ID/g
same,Heart activity concentration,[6],1.08 ± 0.32 % ID/g
same,Kidney activity concentration,[6],1.83 ± 0.57 % ID/g
same,Large Intestine activity concentration,[6],0.41 ± 0.11 % ID/g
same,Liver activity concentration,[6],1.27 ± 0.19 % ID/g
same,Lung activity concentration,[6],1.53 ± 0.28 % ID/g
same,Muscle activity concentration,[6],0.24 ± 0.08 % ID/g
same,Small Intestine activity concentration,[6],0.33 ± 0.1 % ID/g
same,Spleen activity concentration,[6],0.6 ± 0.09 % ID/g
same,Stomach activity concentration,[6],0.27 ± 0.18 % ID/g
same,Tumor activity concentration,[6],5.2±1.4 % ID/g and 5.15 ± 1.42 % ID/g
same,Tumor/Blood activity concentration ratio,[6],2.9 ± 0.92
same,Tumor/Bone activity concentration ratio,[6],15.86 ± 7.12
same,Tumor/Heart activity concentration ratio,[6],4.75 ± 1.92
same,Tumor/Kidney activity concentration ratio,[6],2.81 ± 1.16
same,Tumor/Large Intestine activity concentration ratio,[6],12.68 ± 4.87
same,Tumor/Liver activity concentration ratio,[6],4.06 ± 1.27
same,Tumor/Lung activity concentration ratio,[6],3.37 ± 1.11
same,Tumor/Muscle activity concentration ratio,[6],21.84 ± 9.2
same,Tumor/Small Intestine activity concentration ratio,[6],15.71 ± 6.48
same,Tumor/Spleen activity concentration ratio,[6],8.55 ± 2.69
same,Tumor/Stomach activity concentration ratio,[6],18.92 ± 13.29
